Measured values: US20110071108A1, “Beta-Cyclodextrin Derivatives as Antibacterial Agents” (Pinnacle Pharmaceuticals, Inc., priority 2005, published 2011)

Experiments:
Lungs cancer cells A549 = assay: Mammalian cytotoxicity
Enterococcus faecium = assay: Bacterial panel testing, MIC by broth microdilution; assay type: cell-based; settings: 20-24 hours growth
Method in brief: (§1)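 Strains grown 2-4 h at 37 °C in Mueller-Hinton or Brain Heart infusion broth, standardized to McFarland density and diluted. Compound (10 μg/ml in DMSO) serially two-fold diluted across plate in inoculated media; rifampicin control. Growth 20-24 h, clear wells scored for MIC.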

Salmonella choleraesuis = assay: as above; assay type: cell-based; settings: 20-24 hours growth
Method in brief: as §1

Staphylococcus aureus = assay: as above; assay type: cell-based; settings: 20-24 hours growth
Method in brief: as §1

Eschericia coli = assay: as above; assay type: cell-based; settings: 20-24 hours growth
Method in brief: as §1

Pseudomonas aeruginosa = assay: as above; assay type: cell-based; settings: 20-24 hours growth
Method in brief: as §1

Row | Compound | Mammalian Cytotoxicity IC50 (Lungs cancer cells A549) [µg/mL] | MIC EF (Enterococcus faecium) [µg/mL] | MIC SC (Salmonella choleraesuis) [µg/mL] | MIC SA (Staphylococcus aureus) [µg/mL] | MIC EC (Eschericia coli) [µg/mL] | MIC PA (Pseudomonas aeruginosa) [µg/mL]
1 | NC[C@H]1O[C@@H]2O[C@H]3[C@H](O)[C@@H](O)[C@@H](O[C@H]4[C@H](O)[C@@H](O)[C@@H](O[C@H]5[C@H](O)[C@@H](O)[C@@H](O[C@H]6[C@H](O)[C@@H](O)[C@@H](O[C@H]7[C@H](O)[C@@H](O)[C@@H](O[C@H]8[C@H](O)[C@@H](O)[C@@H](O[C@H]1[C@H](O)[C@H]2O)O[C@@H]8CN)O[C@@H]7CN)O[C@@H]6CN)O[C@@H]5CN)O[C@@H]4CN)O[C@@H]3CN | 720 | >200 | >200 | >200 | – | –
2 | NCC(=O)NC[C@H]1O[C@@H]2O[C@H]3[C@H](O)[C@@H](O)[C@@H](O[C@H]4[C@H](O)[C@@H](O)[C@@H](O[C@H]5[C@H](O)[C@@H](O)[C@@H](O[C@H]6[C@H](O)[C@@H](O)[C@@H](O[C@H]7[C@H](O)[C@@H](O)[C@@H](O[C@H]8[C@H](O)[C@@H](O)[C@@H](O[C@H]1[C@H](O)[C@H]2O)O[C@@H]8CNC(=O)CN)O[C@@H]7CNC(=O)CN)O[C@@H]6CNC(=O)CN)O[C@@H]5CNC(=O)CN)O[C@@H]4CNC(=O)CN)O[C@@H]3CNC(=O)CN | 690 | >200 | >200 | >200 | >200 | >200
3 | CC(C)C[C@H](N)C(=O)NC[C@H]1O[C@@H]2O[C@H]3[C@H](O)[C@@H](O)[C@@H](O[C@H]4[C@H](O)[C@@H](O)[C@@H](O[C@H]5[C@H](O)[C@@H](O)[C@@H](O[C@H]6[C@H](O)[C@@H](O)[C@@H](O[C@H]7[C@H](O)[C@@H](O)[C@@H](O[C@H]8[C@H](O)[C@@H](O)[C@@H](O[C@H]1[C@H](O)[C@H]2O)O[C@@H]8CNC(=O)[C@@H](N)CC(C)C)O[C@@H]7CNC(=O)[C@@H](N)CC(C)C)O[C@@H]6CNC(=O)[C@@H](N)CC(C)C)O[C@@H]5CNC(=O)[C@@H](N)CC(C)C)O[C@@H]4CNC(=O)[C@@H](N)CC(C)C)O[C@@H]3CNC(=O)[C@@H](N)CC(C)C | 215 | >200 | >200 | >200 | >200 | >200
4 | NCCCCCC(=O)NC[C@H]1O[C@@H]2O[C@H]3[C@H](O)[C@@H](O)[C@@H](O[C@H]4[C@H](O)[C@@H](O)[C@@H](O[C@H]5[C@H](O)[C@@H](O)[C@@H](O[C@H]6[C@H](O)[C@@H](O)[C@@H](O[C@H]7[C@H](O)[C@@H](O)[C@@H](O[C@H]8[C@H](O)[C@@H](O)[C@@H](O[C@H]1[C@H](O)[C@H]2O)O[C@@H]8CNC(=O)CCCCCN)O[C@@H]7CNC(=O)CCCCCN)O[C@@H]6CNC(=O)CCCCCN)O[C@@H]5CNC(=O)CCCCCN)O[C@@H]4CNC(=O)CCCCCN)O[C@@H]3CNC(=O)CCCCCN | 780 | >200 | >200 | – | >200 | >200
5 | [N-]=[N+]=NC[C@H]1O[C@@H]2O[C@H]3[C@H](O)[C@@H](O)[C@@H](O[C@H]4[C@H](O)[C@@H](O)[C@@H](O[C@H]5[C@H](O)[C@@H](O)[C@@H](O[C@H]6[C@H](O)[C@@H](O)[C@@H](O[C@H]7[C@H](O)[C@@H](O)[C@@H](O[C@H]8[C@H](O)[C@@H](O)[C@@H](O[C@H]1[C@H](O)[C@H]2O)O[C@@H]8CN=[N+]=[N-])O[C@@H]7CN=[N+]=[N-])O[C@@H]6CN=[N+]=[N-])O[C@@H]5CN=[N+]=[N-])O[C@@H]4CN=[N+]=[N-])O[C@@H]3CN=[N+]=[N-] | 2116 | >200 | >200 | – | >200 | >200
6 | O[C@@H]1[C@@H](O)[C@H]2O[C@H]3[C@H](O)[C@@H](O)[C@@H](O[C@H]4[C@H](O)[C@@H](O)[C@@H](O[C@H]5[C@H](O)[C@@H](O)[C@@H](O[C@H]6[C@H](O)[C@@H](O)[C@@H](O[C@H]7[C@H](O)[C@@H](O)[C@@H](O[C@H]8[C@H](O)[C@@H](O)[C@@H](O[C@@H]1[C@@H](CNc1ncccc1OCc1ccccc1)O2)O[C@@H]8CNc1ncccc1OCc1ccccc1)O[C@@H]7CNc1ncccc1OCc1ccccc1)O[C@@H]6CNc1ncccc1OCc1ccccc1)O[C@@H]5CNc1ncccc1OCc1ccccc1)O[C@@H]4CNc1ncccc1OCc1ccccc1)O[C@@H]3CNc1ncccc1OCc1ccccc1 | 398 | – | >200 | – | >200 | >200
7 | OC1C2OC(CNc3nc4ccccc4s3)C(OC3OC(CNc4nc5ccccc5s4)C(OC4OC(CNc5nc6ccccc6s5)C(OC5OC(CNc6nc7ccccc7s6)C(OC6OC(CNc7nc8ccccc8s7)C(OC7OC(CNc8nc9ccccc9s8)C(OC8OC(CNc9nc%10ccccc%10s9)C(O2)C(O)C8O)C(O)C7O)C(O)C6O)C(O)C5O)C(O)C4O)C(O)C3O)C1O (stereo not shown) | 317 | – | >200 | – | >200 | >200
8 | Cl.Cl.Cl.Cl.Cl.Cl.Cl.NCc1ccc(CSCC2OC3OC4C(CSCc5ccc(CN)cc5)OC(OC5C(CSCc6ccc(CN)cc6)OC(OC6C(CSCc7ccc(CN)cc7)OC(OC7C(CSCc8ccc(CN)cc8)OC(OC8C(CSCc9ccc(CN)cc9)OC(OC9C(CSCc%10ccc(CN)cc%10)OC(OC2C(O)C3O)C(O)C9O)C(O)C8O)C(O)C7O)C(O)C6O)C(O)C5O)C(O)C4O)cc1 (stereo not shown) | 56.2 | >200 | – | >200 | – | –
9 | Cl.Cl.Cl.Cl.Cl.Cl.Cl.NCc1cccc(CSCC2OC3OC4C(CSCc5cccc(CN)c5)OC(OC5C(CSCc6cccc(CN)c6)OC(OC6C(CSCc7cccc(CN)c7)OC(OC7C(CSCc8cccc(CN)c8)OC(OC8C(CSCc9cccc(CN)c9)OC(OC9C(CSCc%10cccc(CN)c%10)OC(OC2C(O)C3O)C(O)C9O)C(O)C8O)C(O)C7O)C(O)C6O)C(O)C5O)C(O)C4O)c1 (stereo not shown) | 54.3 | >200 | >200 | – | – | –
10 | COc1ccc(CNCC2OC3OC4C(CNCc5ccc(OC)cc5)OC(OC5C(CNCc6ccc(OC)cc6)OC(OC6C(CNCc7ccc(OC)cc7)OC(OC7C(CNCc8ccc(OC)cc8)OC(OC8C(CNCc9ccc(OC)cc9)OC(OC9C(CNCc%10ccc(OC)cc%10)OC(OC2C(O)C3O)C(O)C9O)C(O)C8O)C(O)C7O)C(O)C6O)C(O)C5O)C(O)C4O)cc1 (stereo not shown) | 297 | – | >200 | – | – | >200
